Measured values as given in BindingDB's records for patent US11478460 (Chemocentryx, 2022).

Target: T1, C5a anaphylatoxin chemotactic receptor 1 (Homo sapiens, UniProt P21730)
T1 sequence (P21730 whole entry): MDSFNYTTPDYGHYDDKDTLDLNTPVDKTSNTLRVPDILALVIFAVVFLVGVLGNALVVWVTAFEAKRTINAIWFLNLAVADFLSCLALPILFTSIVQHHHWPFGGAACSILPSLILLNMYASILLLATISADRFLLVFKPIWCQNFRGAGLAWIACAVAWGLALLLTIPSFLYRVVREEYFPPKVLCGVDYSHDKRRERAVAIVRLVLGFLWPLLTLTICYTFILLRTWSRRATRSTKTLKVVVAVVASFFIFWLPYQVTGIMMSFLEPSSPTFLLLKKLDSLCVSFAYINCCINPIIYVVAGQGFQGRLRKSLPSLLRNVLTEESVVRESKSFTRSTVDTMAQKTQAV
Assay: chemotaxis assay
Experimental: Optionally, compounds may be further assayed for their ability to inhibit chemotaxis in cells. Chemotaxis assays are performed using 5 μm pore polycarbonate, polyvinylpyrrolidone-coated filters in 96-well chemotaxis chambers (Neuroprobe; Gaithersburg, Md.) using chemotaxis buffer (Hank's balanced salt solution (HBSS) and 1% FBS). C5aR ligands (i.e., C5a, R&D Systems; Minneapolis, Minn.) are use to evaluate compound mediated inhibition of C5aR mediated migration. Other chemokines (i.e., SDF-1α; R&D Systems; Minneapolis, Minn.) are used as specificity controls. The lower chamber is loaded with 29 μl of chemokine (i.e., 0.03 nM C5a) and varying amounts of compound; the top chamber contains 100,000 U937 or neutrophil cells in 20 μl. The chambers are incubated 1.5 hours at 37° C., and the number of cells in the lower chamber quantified either by direct cell counts in five high powered fields per well or by the CyQuant assay (Molecular Probes), a fluorescent dye method that measures nucleic acid content and microscopic observation.

For `Cc1cccc(OCC(C)C)c1-n1nc2c(c1-c1ccc(NC(N)=O)c(F)c1)CN(c1ncc(Cl)cc1F)CC2` [US11478460, Compound 1.250], the IC50 was under 5 nM.

Compound `Cc1cccc(OCC(C)C)c1-n1nc2c(c1-c1ccc(NC(N)=O)cc1)CN(c1cccc(C(C)(C)C)n1)CC2` [US11478460, Compound 1.394] has an IC50 of under 5 nM.
